Key:
[1] = biological target: T1, CDK7/Cyclin H/MAT-1 complex (Homo sapiens, UniProt P50613); assay: Flint assay, end-point fluorescence (5 nM CDK7/Cyclin H/MAT-1 complex); assay type: biochemical; conditions: read-out: CDK7 (5 nM) pIC50 (converted)
T1 construct: Human CDK7 (amino acids 1-346); His6 (N); TEV protease cleavage site (N); made in house; host or cells: baculovirus-SF9 insect cells
How it was run: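 Trimeric complex of His6-TEV-tagged human CDK7 (1-346), MAT1 (1-309) and cyclin H (1-323), co-expressed in Sf9 cells, at 5 nM final, with substrates and coupling reagents as in the absorbance assay; 24 h reaction. End-point NADH fluorescence decrease (ex 340/em 440 nm); % inhibition versus no-inhibitor and full-inhibition controls, IC50 from four-parameter Hill fit.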

[2] = tested on: RNA polymerase II Serine 5 phosphorylation (Rpb1 CTD), downstream substrate of CDK7; assay: Imaging-based cellular RNA PolII Ser5 phosphorylation assay in A549 cells; assay type: cell-based, human; conditions: Homo sapiens, A549, 3 h, challenged with compound for 3 hours, read-out: pRNA polII Ser5 (A549) pIC50 (converted)
How it was run: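 A549 cells seeded 20 h in DMEM with 1% FBS, then exposed to compound for 3 h at 37 °C; fixed, methanol-permeabilized and immunostained for phospho-Rpb1 CTD Ser5, read by automated imaging. Signal normalized to DMSO (high) and 10 μM LDC4297 (low) controls; IC50 from four-parameter fit of % control vs concentration.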

T1 sequence (P50613 whole entry, the tested form may be a part): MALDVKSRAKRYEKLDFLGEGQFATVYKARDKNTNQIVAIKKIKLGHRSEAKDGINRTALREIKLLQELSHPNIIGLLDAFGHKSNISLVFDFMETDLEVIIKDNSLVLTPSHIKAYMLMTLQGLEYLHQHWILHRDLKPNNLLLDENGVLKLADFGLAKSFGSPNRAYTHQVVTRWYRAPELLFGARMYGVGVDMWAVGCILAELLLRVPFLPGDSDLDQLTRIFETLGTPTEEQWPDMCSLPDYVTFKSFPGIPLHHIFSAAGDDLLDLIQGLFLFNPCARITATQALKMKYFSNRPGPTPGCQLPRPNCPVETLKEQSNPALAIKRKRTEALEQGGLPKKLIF
T1 sequence (P51946 whole entry partner, the tested form may be a part): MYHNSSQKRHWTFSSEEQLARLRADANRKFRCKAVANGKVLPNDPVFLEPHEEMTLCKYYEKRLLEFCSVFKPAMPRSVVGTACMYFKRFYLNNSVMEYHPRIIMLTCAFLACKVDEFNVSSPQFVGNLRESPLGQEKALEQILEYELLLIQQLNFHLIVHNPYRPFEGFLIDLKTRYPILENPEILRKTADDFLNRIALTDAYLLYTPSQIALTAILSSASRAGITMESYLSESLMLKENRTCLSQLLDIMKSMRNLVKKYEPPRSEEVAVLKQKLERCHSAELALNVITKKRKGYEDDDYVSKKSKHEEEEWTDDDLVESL
T1 sequence (P51948 whole entry partner, the tested form may be a part): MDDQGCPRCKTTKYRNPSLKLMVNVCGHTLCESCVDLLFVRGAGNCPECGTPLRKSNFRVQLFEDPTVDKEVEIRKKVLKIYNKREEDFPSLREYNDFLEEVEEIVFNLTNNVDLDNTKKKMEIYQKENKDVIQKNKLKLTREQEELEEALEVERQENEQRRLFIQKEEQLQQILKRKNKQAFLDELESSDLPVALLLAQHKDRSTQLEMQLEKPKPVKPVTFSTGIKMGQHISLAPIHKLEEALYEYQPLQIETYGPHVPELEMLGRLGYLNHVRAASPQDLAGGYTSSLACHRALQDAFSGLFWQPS

| IC50 [1] [nM] | IC50 [2] [nM] | Structure (SMILES) |
| --- | --- | --- |
| 8.91 | 2570 | C[C@@H]1Cc2cnc(NCc3ccn(C)n3)nc2CN1C(=O)[C@H]1CCN(C)C[C@@H]1C(F)(F)F (relative stereo) [Compound 143] |
| 105 | 2510 | C[C@H]1CN(C(=O)[C@H]2CCN(C)C[C@@H]2c2ccccc2)[C@@H](C)c2nc(NC3CCOCC3)ncc21 (relative stereo) [Compound 181] |
| 10 | 759 | C[C@@H]1Cc2cnc(N[C@H]3CCCNC3)nc2CN1C(=O)[C@H]1CCN(C)C[C@@H]1C(F)(F)F (relative stereo) [Compound 144] |
| 3.8 | 832 | C[C@@H]1Cc2cnc(N[C@@H]3CCC(=O)N(C)C3)nc2CN1C(=O)[C@H]1CCN(C)C[C@@H]1c1ccccc1 (relative stereo) [Compound 6] |
| 19.5 | 1700 | Cc1cc([C@@H]2CN(C)CC[C@H]2C(=O)N2Cc3nc(NC4CCOCC4)ncc3C[C@H]2C)ccn1 (relative stereo) [Compound 102] |
| 17.4 | 692 | C[C@@H]1Cc2cnc(NC3CCOCC3)nc2CN1C(=O)[C@H]1CCN(C)C[C@@H]1C (relative stereo) [Compound 146] |
| 3.16 | ~67.6 | Cc1cccc([C@H]2CN(C)CC[C@@H]2C(=O)N2Cc3nc(NC4CCOCC4)ncc3C[C@H]2C)c1 (relative stereo) [Compound 134] |
| 2.51 | 129 | [2H]C([2H])([2H])N1CC[C@H](C(=O)N2Cc3nc(NCc4ccccc4)ncc3C[C@H]2C)[C@@H](c2ccccc2)C1 (single isomer, unassigned) [Compound 154] |
| 6.17 | 110 | CC1CN(C(=O)[C@H]2CCN(C)C[C@@H]2c2ccccc2)Cc2nc(Nc3cnn(C)c3)ncc21 (mixture of isomers) [Compound 194] |
| 8.13 | 97.7 | C[C@@H]1Cc2cnc(NC3CCOCC3)nc2CN1C(=O)[C@H]1CCN(C)C[C@@H]1c1cccc(F)c1 (relative stereo) [Compound 133] |
| 2.82 | 105 | C[C@@H]1CN(C(=O)[C@H]2CCN(C)C[C@@H]2c2ccccc2)Cc2nc(NC3CCOCC3)ncc21 (relative stereo) [Compound 188] |
| 10 | 407 | CO[C@H]1CC[C@H](Nc2ncc3c(n2)CN(C(=O)[C@@H]2CCN(C)C[C@H]2c2ccnc(C)c2)[C@H](C)C3)CC1 (relative stereo) [Compound 105] |
| 15.8 | ~27.5 | Cc1cccc([C@@H]2CN(C)CC[C@H]2C(=O)N2Cc3nc(NCc4ccn(C)n4)ncc3C[C@H]2C)c1 (relative stereo) [Compound 136] |
| 8.51 | > 10000 | C[C@@H]1Cc2cnc(NCc3ccccc3)nc2CN1C(=O)[C@@H]1CCN(C)C[C@H]1C(F)(F)F (relative stereo) [Compound 141] |
| 4.9 | 72.4 | C[C@@H]1Cc2cnc(NC3CCOCC3)nc2[C@H](C)N1C(=O)[C@H]1CCN(C)C[C@@H]1c1ccccc1 (single isomer, unassigned) [Compound 195b] |
| 5.01 | 398 | C[C@@H]1Cc2cnc(N[C@H]3CCOC(C)(C)C3)nc2CN1C(=O)[C@H]1CCN(C)C[C@@H]1c1ccccc1 (relative stereo) [Compound 39] |
| 3.63 | ~81.3 | C[C@@H]1Cc2cnc(NC3CCOCC3)nc2CN1C(=O)[C@H]1CCN(C)C[C@@H]1c1ccc(Cl)cc1 (relative stereo) [Compound 132] |
| < 2.51 | ~26.9 | [2H]C([2H])([2H])N1CC[C@@H](C(=O)N2Cc3nc(NCc4ccn(C)n4)ncc3C[C@H]2C)[C@H](c2cccc(C)c2)C1 (single isomer, unassigned) [Compound 148] |
| 22.4 | 1020 | CN1CC[C@H](C(=O)N2Cc3nc(NC4CCOCC4)ncc3CC2(C)C)[C@@H](c2ccccc2)C1 (relative stereo) [Compound 189] |
| 49 | 1260 | C[C@@H]1Cc2cnc(NCc3ccn(C)n3)nc2CN1C(=O)[C@H]1CCN(C)C[C@@H]1c1ccccc1C(F)F (relative stereo) [Compound 139] |
| 100 | 2950 | C[C@@H]1CN(C)CC[C@H]1C(=O)N1Cc2nc(NC3CCOCC3)ncc2C[C@H]1C (relative stereo) [Compound 145] |
| 4.9 | ~41.7 | C[C@@H]1Cc2cnc(NCc3ccn(C)n3)nc2CN1C(=O)[C@H]1CCN(C)C[C@@H]1c1cccc(C(F)(F)F)c1 (relative stereo) [Compound 129] |

From US12679839B2, “Cyclin-dependent kinase 7 (CDK7) non-covalent inhibitors” (JANSSEN PHARMACEUTICA NV, priority 2020, dated 2026)
